Experimental findings from PubChem BioAssay AID1919009 (Molecular Pharmacology Branch, DTP, NCI, 2023) are described below.

In this test the test system is K24384-001-R-PDC complex spheroid growth. Kind of test: Anticancer human tumor K24384-001-R-PDC patient-derived pancreatic adenocarcinoma cell line growth inhibition [AhR]. To be noted: for viability, T/C: stronger effect = lower value. Summed up:
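Spheroids combined tumor cells with HUVEC endothelial cells and human MSCs as stroma. AhR antagonists were paired with standard or investigational drugs, each dosed in half-log steps down from near clinical Cmax, or from 10 microM where Cmax was unknown.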

Where [1] appears, read: curve of first compound, second compound 0.1 µM.
Where [2] appears, read: curve of first compound, second compound 0.316 µM.
The mark [3] stands for this setting: curve of first compound, second compound 1 µM.
Where [4] appears, read: curve of first compound, second compound 3.16 µM.
The mark [5] stands for this setting: curve of first compound, second compound 10 µM.
The mark [6] stands for this setting: second compound 0.1 µM, first compound 0.00949 µM.
Where [7] appears, read: second compound 0.1 µM, first compound 0.03 µM.
The mark [8] stands for this setting: second compound 0.1 µM, first compound 0.0949 µM.
Setting [9] is: second compound 0.1 µM, first compound 0.3 µM.
[10] abbreviates: second compound 0.316 µM, first compound 0.00949 µM.
[11] abbreviates: second compound 0.316 µM, first compound 0.03 µM.
[12] abbreviates: second compound 0.316 µM, first compound 0.0949 µM.
Where [13] appears, read: second compound 0.316 µM, first compound 0.3 µM.
Setting [14] is: second compound 1 µM, first compound 0.00949 µM.
Setting [15] is: second compound 1 µM, first compound 0.03 µM.
[16] abbreviates: second compound 1 µM, first compound 0.0949 µM.
[17] abbreviates: second compound 1 µM, first compound 0.3 µM.
[18] abbreviates: second compound 3.16 µM, first compound 0.00949 µM.
[19] abbreviates: second compound 3.16 µM, first compound 0.03 µM.
[20] abbreviates: second compound 3.16 µM, first compound 0.0949 µM.
[21] abbreviates: second compound 3.16 µM, first compound 0.3 µM.
Where [22] appears, read: second compound 10 µM, first compound 0.00949 µM.
Where [23] appears, read: second compound 10 µM, first compound 0.03 µM.
[24] abbreviates: second compound 10 µM, first compound 0.0949 µM.
Setting [25] is: second compound 10 µM, first compound 0.3 µM.

Several values for one entry are separate records, joined by “and”; a condition that tells them apart may be missing. Identical values can stand only once.
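Throughout, for viability, T/C: percent of DMSO vehicle-treated spheroid viability set as 100%.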

As for `CCN(c1cc(-c2ccc(CN3CCOCC3)cc2)cc(C(=O)NCc2c(C)cc(C)[nH]c2=O)c1C)C1CCOCC1` + Cc1ccccc1N=Nc1ccc(NC(=O)c2ccnn2C)c(C)c1, the concentration for half-maximal inhibition (IC50) runs as follows: under setting [1], greater than 3000 nM; under setting [2], greater than 3000 nM; under setting [3], greater than 3000 nM; under setting [4], greater than 3000 nM; under setting [5], greater than 3000 nM. The viability, T/C by setting is: under setting [6], 116%; under setting [7], 114%; under setting [8], 124%; under setting [9], 113%; (second compound 0.1 µM, first compound 0.949 µM) 80%; (second compound 0.1 µM, first compound 3 µM) 125%. Moreover, the viability, T/C was 131% under setting [10]; 126% under setting [11]; 135% under setting [12]; 112% under setting [13]; 106% (second compound 0.316 µM, first compound 0.949 µM); 91.2% (second compound 0.316 µM, first compound 3 µM). The viability, T/C under setting [14] was 119%; the viability, T/C under setting [15] was 134%; the viability, T/C under setting [16] is 131%; the viability, T/C under setting [17] is 106%; the viability, T/C (second compound 1 µM, first compound 0.949 µM) was 87.3%; the viability, T/C (second compound 1 µM, first compound 3 µM) was 87.8%. For the same molecule, the viability, T/C was 109% under setting [18]; 117% under setting [19]; 116% under setting [20]; 107% under setting [21]; 130% (second compound 3.16 µM, first compound 0.949 µM); 105% (second compound 3.16 µM, first compound 3 µM). Besides, the viability, T/C is, setting by setting: under setting [22], 141%; under setting [23], 138%; under setting [24], 147%; under setting [25], 137%; (second compound 10 µM, first compound 0.949 µM) 128%; (second compound 10 µM, first compound 3 µM) 110%.
Take `CC1(C)CCC(CN2CCN(c3ccc(C(=O)NS(=O)(=O)c4ccc(NCC5CCOCC5)c([N+](=O)[O-])c4)c(Oc4cnc5[nH]ccc5c4)c3)CC2)=C(c2ccc(Cl)cc2)C1`: the viability, T/C (compound 0.0316 µM) is 104% (2×) and 108%; the viability, T/C (compound 0.1 µM) is 90.7% and 115% and 103%; the viability, T/C (compound 0.316 µM) was 90% and 103% and 106%; the viability, T/C (compound 1 µM) is 111% and 105% and 92.7%; the viability, T/C (compound 3.16 µM) is 126% and 88.2% and 84.7%; the viability, T/C (compound 10 µM) is 25.9% and 60.7% and 62.5%. Further, the half-inhibitory concentration (IC50) (curve of compound) is 7030 nM and > 10000 nM.
Regarding `Nc1ncn(C2CC(O)C(CO)S2)c(=O)n1` (stereo not drawn) + CC(CO)NC(=O)c1cc(-c2ccc(Cl)cc2)nn(-c2cnn(C)c2)c1=O, the 50% inhibitory concentration (IC50) is, setting by setting: under setting [1], greater than 300 nM; under setting [2], greater than 300 nM; under setting [3], greater than 300 nM; under setting [4], greater than 300 nM; under setting [5], greater than 300 nM. In addition, the viability, T/C (second compound 0.1 µM, first compound 0.000949 µM) was 115%; the viability, T/C (second compound 0.1 µM, first compound 0.003 µM) was 126%; the viability, T/C under setting [6] was 114%; the viability, T/C under setting [7] is 74.6%; the viability, T/C under setting [8] was 84.4%; the viability, T/C under setting [9] is 72.4%. In addition, the viability, T/C is, setting by setting: (second compound 0.316 µM, first compound 0.000949 µM) 118%; (second compound 0.316 µM, first compound 0.003 µM) 130%; under setting [10], 134%; under setting [11], 88.3%; under setting [12], 98.2%; under setting [13], 69.8%. The viability, T/C (second compound 1 µM, first compound 0.000949 µM) was 137%; the viability, T/C (second compound 1 µM, first compound 0.003 µM) is 127%; the viability, T/C under setting [14] was 148%; the viability, T/C under setting [15] is 125%; the viability, T/C under setting [16] is 92.2%; the viability, T/C under setting [17] was 65.5%. The viability, T/C (second compound 3.16 µM, first compound 0.000949 µM) is 87.3%; the viability, T/C (second compound 3.16 µM, first compound 0.003 µM) is 124%; the viability, T/C under setting [18] is 119%; the viability, T/C under setting [19] is 118%; the viability, T/C under setting [20] was 92.6%; the viability, T/C under setting [21] is 76.2%. Besides, the viability, T/C by setting is: (second compound 10 µM, first compound 0.000949 µM) 105%; (second compound 10 µM, first compound 0.003 µM) 106%; under setting [22], 136%; under setting [23], 107%; under setting [24], 105%; under setting [25], 83.4%.
Take `CC(C)c1c(-c2ccccc2)nc2c(C#N)c[nH]n2c1=O`: the viability, T/C by setting is: (compound 0.0316 µM) 108% and 110% and 104%; (compound 0.1 µM) 95% and 105% (2×); (compound 0.316 µM) 98.1% and 105% and 104%; (compound 1 µM) 93.7% and 93.4% and 98.7%; (compound 3.16 µM) 91.1% and 103% (2×); (compound 10 µM) 91.9% and 98.8% and 81%. The IC50 (curve of compound) was greater than 10000 nM.
For the molecule `COc1cc(C2c3cc4c(cc3C(OC3OC5COC(C)OC5C(O)C3O)C3COC(=O)C23)OCO4)cc(OC)c1O` (stereo not drawn), the viability, T/C runs as follows: (compound 0.0316 µM) 106% and 96.2% and 98%; (compound 0.1 µM) 86.7% and 100% and 103%; (compound 0.316 µM) 60.8% and 83.3% and 80.6%; (compound 1 µM) 53.5% and 62.9% and 58.8%; (compound 3.16 µM) 48.5% and 51% and 43.7%; (compound 10 µM) 39% and 34.7% and 37.7%. The IC50 (curve of compound) is 1410 nM and 2650 nM and 1830 nM.
As to `NS(=O)(=O)OCC1CC(n2ccc3c(NC4CCc5ccccc54)ncnc32)CC1O` (stereo not drawn), the viability, T/C by setting is: (compound 0.0316 µM) 102% and 101% and 100%; (compound 0.1 µM) 119% and 96.5% and 107%; (compound 0.316 µM) 107% (2×) and 102%; (compound 1 µM) 95.7% and 59% and 75.3%; (compound 3.16 µM) 40.4% and 32.9% and 49.2%; (compound 10 µM) 27.5% and 21.6% and 24.1%. Besides, for the setting “curve of compound”, the IC50 is 2590 nM and 1420 nM and 2770 nM.
For the molecule `NS(=O)(=O)OCC1CC(n2ccc3c(NC4CCc5ccccc54)ncnc32)CC1O` (stereo not drawn) + Cc1ccccc1N=Nc1ccc(NC(=O)c2ccnn2C)c(C)c1, the concentration for half-maximal inhibition (IC50) is, setting by setting: under setting [1], 932 nM; under setting [2], 928 nM; under setting [3], 732 nM; under setting [4], 432 nM; under setting [5], 427 nM. For the same molecule, the viability, T/C was 104% (second compound 0.1 µM, first compound 0.0316 µM); 117% (second compound 0.1 µM, first compound 0.1 µM); 96.4% (second compound 0.1 µM, first compound 0.316 µM); 47.4% (second compound 0.1 µM, first compound 1 µM); 23.7% (second compound 0.1 µM, first compound 3.16 µM); 22.1% (second compound 0.1 µM, first compound 10 µM). In addition, the viability, T/C by setting is: (second compound 0.316 µM, first compound 0.0316 µM) 104%; (second compound 0.316 µM, first compound 0.1 µM) 115%; (second compound 0.316 µM, first compound 0.316 µM) 98.8%; (second compound 0.316 µM, first compound 1 µM) 46.1%; (second compound 0.316 µM, first compound 3.16 µM) 27.3%; (second compound 0.316 µM, first compound 10 µM) 18.3%. Besides, the viability, T/C by setting is: (second compound 1 µM, first compound 0.0316 µM) 117%; (second compound 1 µM, first compound 0.1 µM) 127%; (second compound 1 µM, first compound 0.316 µM) 83.5%; (second compound 1 µM, first compound 1 µM) 39.5%; (second compound 1 µM, first compound 3.16 µM) 24.2%; (second compound 1 µM, first compound 10 µM) 22.6%. Besides, the viability, T/C reads like this: (second compound 3.16 µM, first compound 0.0316 µM) 103%; (second compound 3.16 µM, first compound 0.1 µM) 108%; (second compound 3.16 µM, first compound 0.316 µM) 58.3%; (second compound 3.16 µM, first compound 1 µM) 32.7%; (second compound 3.16 µM, first compound 3.16 µM) 24.6%; (second compound 3.16 µM, first compound 10 µM) 20.9%. In addition, the viability, T/C is 96.2% (second compound 10 µM, first compound 0.0316 µM); 104% (second compound 10 µM, first compound 0.1 µM); 59% (second compound 10 µM, first compound 0.316 µM); 30.1% (second compound 10 µM, first compound 1 µM); 23.4% (second compound 10 µM, first compound 3.16 µM); 20.3% (second compound 10 µM, first compound 10 µM).

By IC50 is commonly meant the concentration needed to halve the response being measured. A word on the viability, T/C: it is the result in the treated group divided by that in the control group, in per cent.
